The values that follow are results of earlier work, collected in US20210236593A1, “METHODS OF SUPPORTING WEIGHT MAINTENANCE BY DECREASING THE ACTIVITY OF FAM46A” (SOCIETE DES PRODUITS NESTLE S.A., priority 2016, published 2021).

Entries after “also recorded” stand apart in the source; their conditions may differ. Counter-ions that a name gives are not always drawn.

The subject of the data set is FAM46A. The settings on record: effect of the chemical on FAM46A expression.

As for `NC(=O)N1c2ccccc2C=Cc2ccccc21` [Carbamazepine, reference compound], the “Interaction Actions” value is listed as “Affects expression”. For `CCCC(CCC)C(=O)O` [Valproic Acid, reference compound], the “Interaction Actions” value is “Decreases expression”. Take `CC(=O)Nc1ccc(O)cc1` [Acetaminophen, reference compound]: the “Interaction Actions” value is recorded as “Affects expression”. Consider `CC(/C=C/C(=O)NO)=C\[C@@H](C)C(=O)c1ccc(N(C)C)cc1` [Trichostatin A, reference compound], for which the “Interaction Actions” value was “Decreases expression”.

Consider `c1ccc2c(c1)cc1ccc3cccc4ccc2c1c34` [Benzo(a)pyrene], for which the “Interaction Actions” value was “Decreases expression”. On to `CCCCOC(=O)c1ccccc1C(=O)OCCCC` [Dibutyl Phthalate], for which the “Interaction Actions” value is listed as “Decreases expression”. For `Cc1oncc1C(=O)Nc1ccc(C(F)(F)F)cc1` [Leflunomide, reference compound], the “Interaction Actions” value is given as “Decreases expression”. `Nc1ccccc1NC(=O)c1ccc(CNC(=O)OCc2cccnc2)cc1` [Entinostat, reference compound]: the “Interaction Actions” value is given as “Decreases expression”. In the case of `[CH3][Hg][Cl]` [Methylmercuric chloride], the “Interaction Actions” value is “Decreases expression”. Turning to `CC1=C(/C=C/C(C)=C/C=C/C(C)=C/C(=O)O)C(C)(C)CCC1` [Tretinoin, reference compound], the “Interaction Actions” value is recorded as “Decreases expression”. Consider `C=CC1(C)OC(=O)N(c2cc(Cl)cc(Cl)c2)C1=O` (stereo not drawn) [Vinclozolin], for which the “Interaction Actions” value is recorded as “Affects expression; also recorded: Decreases expression”. Take `Clc1cc2c(cc1Cl)Oc1cc(Cl)c(Cl)cc1O2` [Tetrachlorodibenzodioxin]: the “Interaction Actions” value was “Decreases expression”. `CCc1nn(CCCN2CCN(c3cccc(Cl)c3)CC2)c(=O)n1CCOc1ccccc1` [Nefazodone, reference compound]: the “Interaction Actions” value is recorded as “Decreases expression”. As for `O=C(NN=C1CCCCC1)C(=O)NN=C1CCCCC1` [Cuprizone, reference compound], the “Interaction Actions” value is reported as “Decreases expression”. For the compound `CCOC(=O)/C=C\C(=O)OCC` [Diethyl maleate], the “Interaction Actions” value is reported as “Decreases expression”.

As to `N#Cc1nn(-c2c(Cl)cc(C(F)(F)F)cc2Cl)c(N)c1[S+]([O-])C(F)(F)F` (stereo not drawn) [Fipronil], the “Interaction Actions” value is “Decreases expression”. Regarding `O=C(O)C(F)(F)C(F)(F)C(F)(F)C(F)(F)C(F)(F)C(F)(F)C(F)(F)C(F)(F)C(F)(F)C(F)(F)F` [Perfluoro-n-undecanoic acid], the “Interaction Actions” value was “Decreases expression”.

`Cc1cccc(Nc2cc(Cl)nc(SCC(=O)O)n2)c1C` [Pirinixic acid, reference compound]: the “Interaction Actions” value is “Decreases expression”. Take `OO` [Hydrogen Peroxide]: the “Interaction Actions” value is on record as “Affects expression; also recorded: Decreases expression”. For `Nc1ccn([C@@H]2O[C@H](CO)[C@@H](O)[C@@H]2O)c(=O)n1` [Cytarabine, reference compound], the “Interaction Actions” value is reported as “Decreases expression”. In the case of `CN(C)C(=O)Nc1ccc(Cl)c(Cl)c1` [Diuron], the “Interaction Actions” value is “Decreases expression”.
